Laboratory results as given in publication PMC9030254, “Target Hopping from Protein Kinases to PXR: Identification of Small-Molecule Protein Kinase Inhibitors as Selective Modulators of Pregnane X Receptor from TüKIC Library” (Cells, 2022).

Assays:
Assay in all cases: Kinase profiling
Assay type in all cases: biochemical
MYLK = target: T1, MYLK (Homo sapiens, UniProt Q15746)
T1 construct: purchased ProQinase (Freiburg, Germany)
Method: (§1) The analysis was performed by ProQinase (Freiburg, Germany).

PAK1 = target: T2, PAK1 (Homo sapiens, UniProt Q13153)
T2 construct: purchased ProQinase (Freiburg, Germany)
Method: as §1

PRK1 = target: T3, PRK1 (Homo sapiens, UniProt Q16512)
T3 construct: purchased ProQinase (Freiburg, Germany)
Method: as §1

ARK5 = target: T4, ARK5 (Homo sapiens, UniProt O60285)
T4 construct: purchased ProQinase (Freiburg, Germany)
T4 sequence (O60285 1-661): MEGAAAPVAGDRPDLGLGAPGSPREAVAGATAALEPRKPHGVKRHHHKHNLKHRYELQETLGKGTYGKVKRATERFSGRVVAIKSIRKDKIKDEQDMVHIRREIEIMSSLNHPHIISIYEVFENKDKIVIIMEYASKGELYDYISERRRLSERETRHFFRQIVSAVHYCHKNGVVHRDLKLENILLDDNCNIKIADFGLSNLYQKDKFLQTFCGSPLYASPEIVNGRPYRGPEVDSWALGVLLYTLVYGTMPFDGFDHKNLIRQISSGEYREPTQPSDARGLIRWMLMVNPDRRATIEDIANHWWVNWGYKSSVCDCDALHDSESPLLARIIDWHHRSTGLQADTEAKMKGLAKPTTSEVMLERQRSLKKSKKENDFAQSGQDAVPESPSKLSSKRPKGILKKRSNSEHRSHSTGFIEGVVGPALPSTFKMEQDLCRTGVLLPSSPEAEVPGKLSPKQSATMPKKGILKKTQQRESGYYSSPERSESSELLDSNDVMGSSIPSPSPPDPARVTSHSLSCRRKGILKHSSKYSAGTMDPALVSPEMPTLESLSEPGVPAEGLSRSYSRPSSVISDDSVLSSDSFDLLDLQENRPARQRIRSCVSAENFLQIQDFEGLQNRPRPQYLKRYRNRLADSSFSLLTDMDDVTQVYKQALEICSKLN
Method: as §1

MARK1 = target: T5, MARK1 (Homo sapiens, UniProt Q9P0L2)
T5 construct: purchased ProQinase (Freiburg, Germany)
Method: as §1

CLK2 = target: T6, CLK2 (Homo sapiens, UniProt P49760)
T6 construct: purchased ProQinase (Freiburg, Germany)
Method: as §1

ACVRL1 = target: T7, ACVRL1 (Homo sapiens, UniProt P37023)
T7 construct: purchased ProQinase (Freiburg, Germany)
Method: as §1

SGK2 = target: T8, SGK2 (Homo sapiens, UniProt Q9HBY8)
T8 construct: purchased ProQinase (Freiburg, Germany)
T8 sequence (Q9HBY8 1-367): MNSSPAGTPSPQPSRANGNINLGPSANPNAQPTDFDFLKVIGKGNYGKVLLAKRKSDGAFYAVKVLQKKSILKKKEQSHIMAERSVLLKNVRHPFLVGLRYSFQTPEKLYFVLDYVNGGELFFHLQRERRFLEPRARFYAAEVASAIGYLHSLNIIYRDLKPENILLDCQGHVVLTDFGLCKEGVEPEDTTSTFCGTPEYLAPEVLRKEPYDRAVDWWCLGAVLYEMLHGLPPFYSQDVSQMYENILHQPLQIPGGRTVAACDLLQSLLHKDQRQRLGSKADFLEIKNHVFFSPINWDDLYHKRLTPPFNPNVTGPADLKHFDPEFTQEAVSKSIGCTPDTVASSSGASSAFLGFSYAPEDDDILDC
Method: as §1

CDK1/CycB1 = target: T9, CDK1/CycB1 (Homo sapiens, UniProt P06493)
T9 construct: purchased ProQinase (Freiburg, Germany)
Method: as §1

TTK = target: T10, TTK (Homo sapiens, UniProt P33981)
T10 construct: purchased ProQinase (Freiburg, Germany)
T10 sequence (P33981 1-857): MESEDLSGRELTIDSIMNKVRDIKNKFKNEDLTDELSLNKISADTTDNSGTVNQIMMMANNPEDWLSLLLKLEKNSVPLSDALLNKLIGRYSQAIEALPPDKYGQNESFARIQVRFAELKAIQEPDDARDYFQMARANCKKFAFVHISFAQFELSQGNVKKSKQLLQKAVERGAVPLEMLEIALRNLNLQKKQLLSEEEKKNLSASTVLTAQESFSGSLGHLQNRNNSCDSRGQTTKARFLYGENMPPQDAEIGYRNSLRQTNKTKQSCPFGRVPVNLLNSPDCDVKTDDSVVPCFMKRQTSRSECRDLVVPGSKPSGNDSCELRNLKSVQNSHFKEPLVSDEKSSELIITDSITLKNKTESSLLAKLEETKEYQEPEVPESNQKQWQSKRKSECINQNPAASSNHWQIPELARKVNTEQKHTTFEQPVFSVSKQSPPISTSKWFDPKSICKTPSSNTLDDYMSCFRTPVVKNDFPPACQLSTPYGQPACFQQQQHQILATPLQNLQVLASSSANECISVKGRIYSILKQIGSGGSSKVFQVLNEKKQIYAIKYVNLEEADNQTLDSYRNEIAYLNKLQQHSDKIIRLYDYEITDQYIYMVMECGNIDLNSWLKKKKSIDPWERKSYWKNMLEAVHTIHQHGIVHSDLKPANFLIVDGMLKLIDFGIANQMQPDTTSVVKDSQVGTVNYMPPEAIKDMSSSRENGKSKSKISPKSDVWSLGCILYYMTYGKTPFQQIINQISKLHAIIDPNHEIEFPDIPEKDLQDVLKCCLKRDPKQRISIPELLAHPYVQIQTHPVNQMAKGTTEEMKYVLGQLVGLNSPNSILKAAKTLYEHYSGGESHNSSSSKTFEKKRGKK
Method: as §1

FES = target: T11, FES (Homo sapiens, UniProt P07332)
T11 construct: purchased ProQinase (Freiburg, Germany)
Method: as §1

WEE1 = target: T12, WEE1 (Homo sapiens, UniProt P30291)
T12 construct: purchased ProQinase (Freiburg, Germany)
Method: as §1

T9 sequence (P06493 whole entry): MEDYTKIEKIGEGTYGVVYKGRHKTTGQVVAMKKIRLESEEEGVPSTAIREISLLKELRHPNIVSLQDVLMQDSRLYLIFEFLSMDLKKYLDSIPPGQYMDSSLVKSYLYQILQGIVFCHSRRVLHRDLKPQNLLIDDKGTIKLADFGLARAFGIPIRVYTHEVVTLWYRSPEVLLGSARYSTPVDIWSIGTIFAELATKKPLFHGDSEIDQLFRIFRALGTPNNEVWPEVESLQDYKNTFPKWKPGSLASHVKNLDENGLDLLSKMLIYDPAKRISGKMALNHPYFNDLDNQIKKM
T9 sequence (P14635 whole entry partner): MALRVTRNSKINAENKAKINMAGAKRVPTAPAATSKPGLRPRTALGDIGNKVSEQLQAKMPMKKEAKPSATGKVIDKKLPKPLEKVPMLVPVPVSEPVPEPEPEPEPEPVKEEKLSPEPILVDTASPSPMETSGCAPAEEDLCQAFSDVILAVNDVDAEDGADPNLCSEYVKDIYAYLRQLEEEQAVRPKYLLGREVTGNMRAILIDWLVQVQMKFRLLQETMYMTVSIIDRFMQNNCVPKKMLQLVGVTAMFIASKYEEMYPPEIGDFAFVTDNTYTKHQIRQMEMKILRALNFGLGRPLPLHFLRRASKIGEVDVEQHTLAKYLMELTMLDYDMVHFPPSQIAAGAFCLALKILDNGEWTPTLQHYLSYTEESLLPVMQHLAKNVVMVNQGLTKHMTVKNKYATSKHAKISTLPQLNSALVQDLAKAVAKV
T1 sequence (Q15746 whole entry): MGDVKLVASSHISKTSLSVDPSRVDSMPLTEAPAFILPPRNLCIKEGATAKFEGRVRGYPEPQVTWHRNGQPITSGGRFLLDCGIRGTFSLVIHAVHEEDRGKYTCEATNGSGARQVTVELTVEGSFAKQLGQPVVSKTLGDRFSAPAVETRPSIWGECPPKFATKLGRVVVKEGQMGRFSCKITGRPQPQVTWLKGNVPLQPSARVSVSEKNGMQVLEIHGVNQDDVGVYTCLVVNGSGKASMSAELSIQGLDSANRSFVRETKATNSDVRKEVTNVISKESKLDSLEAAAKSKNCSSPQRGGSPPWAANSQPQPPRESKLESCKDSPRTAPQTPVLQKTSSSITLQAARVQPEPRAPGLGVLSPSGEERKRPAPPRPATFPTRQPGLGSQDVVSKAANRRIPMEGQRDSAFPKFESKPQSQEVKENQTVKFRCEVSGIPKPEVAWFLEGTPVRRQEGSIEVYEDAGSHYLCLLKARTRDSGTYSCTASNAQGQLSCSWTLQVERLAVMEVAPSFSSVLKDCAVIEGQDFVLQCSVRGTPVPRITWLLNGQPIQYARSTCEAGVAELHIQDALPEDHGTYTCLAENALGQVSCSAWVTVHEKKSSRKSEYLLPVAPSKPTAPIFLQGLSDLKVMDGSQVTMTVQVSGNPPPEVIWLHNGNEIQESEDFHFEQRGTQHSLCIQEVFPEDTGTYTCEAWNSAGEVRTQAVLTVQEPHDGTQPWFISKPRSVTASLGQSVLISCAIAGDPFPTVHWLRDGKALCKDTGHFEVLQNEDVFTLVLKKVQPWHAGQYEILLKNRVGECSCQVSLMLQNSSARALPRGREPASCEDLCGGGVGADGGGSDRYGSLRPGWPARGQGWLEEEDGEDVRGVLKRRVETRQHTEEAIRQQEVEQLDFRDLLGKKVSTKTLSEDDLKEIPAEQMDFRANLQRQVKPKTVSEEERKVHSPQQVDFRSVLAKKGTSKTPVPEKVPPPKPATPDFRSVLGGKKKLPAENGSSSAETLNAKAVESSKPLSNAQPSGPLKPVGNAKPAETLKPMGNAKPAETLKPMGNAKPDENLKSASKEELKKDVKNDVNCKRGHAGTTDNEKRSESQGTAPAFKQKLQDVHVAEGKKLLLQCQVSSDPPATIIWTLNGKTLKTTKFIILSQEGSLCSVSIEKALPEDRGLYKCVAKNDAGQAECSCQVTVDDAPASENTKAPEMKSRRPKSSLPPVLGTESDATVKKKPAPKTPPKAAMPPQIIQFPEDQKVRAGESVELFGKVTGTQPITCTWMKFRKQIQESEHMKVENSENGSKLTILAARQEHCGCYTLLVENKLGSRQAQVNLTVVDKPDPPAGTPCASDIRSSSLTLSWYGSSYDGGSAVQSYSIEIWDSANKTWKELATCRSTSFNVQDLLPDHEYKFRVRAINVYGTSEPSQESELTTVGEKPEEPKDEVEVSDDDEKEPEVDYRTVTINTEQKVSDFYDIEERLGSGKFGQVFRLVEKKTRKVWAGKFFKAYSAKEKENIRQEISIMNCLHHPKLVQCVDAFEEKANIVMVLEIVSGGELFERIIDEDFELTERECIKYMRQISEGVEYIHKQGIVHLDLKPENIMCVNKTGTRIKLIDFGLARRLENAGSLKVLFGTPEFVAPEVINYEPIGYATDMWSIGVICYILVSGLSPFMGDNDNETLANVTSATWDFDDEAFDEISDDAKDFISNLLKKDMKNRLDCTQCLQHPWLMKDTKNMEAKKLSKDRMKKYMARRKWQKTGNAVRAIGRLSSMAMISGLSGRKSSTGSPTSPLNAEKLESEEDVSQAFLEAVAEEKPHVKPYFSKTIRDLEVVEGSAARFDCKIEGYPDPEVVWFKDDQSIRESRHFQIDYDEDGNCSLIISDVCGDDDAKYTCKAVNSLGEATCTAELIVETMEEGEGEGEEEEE
T5 sequence (Q9P0L2 whole entry): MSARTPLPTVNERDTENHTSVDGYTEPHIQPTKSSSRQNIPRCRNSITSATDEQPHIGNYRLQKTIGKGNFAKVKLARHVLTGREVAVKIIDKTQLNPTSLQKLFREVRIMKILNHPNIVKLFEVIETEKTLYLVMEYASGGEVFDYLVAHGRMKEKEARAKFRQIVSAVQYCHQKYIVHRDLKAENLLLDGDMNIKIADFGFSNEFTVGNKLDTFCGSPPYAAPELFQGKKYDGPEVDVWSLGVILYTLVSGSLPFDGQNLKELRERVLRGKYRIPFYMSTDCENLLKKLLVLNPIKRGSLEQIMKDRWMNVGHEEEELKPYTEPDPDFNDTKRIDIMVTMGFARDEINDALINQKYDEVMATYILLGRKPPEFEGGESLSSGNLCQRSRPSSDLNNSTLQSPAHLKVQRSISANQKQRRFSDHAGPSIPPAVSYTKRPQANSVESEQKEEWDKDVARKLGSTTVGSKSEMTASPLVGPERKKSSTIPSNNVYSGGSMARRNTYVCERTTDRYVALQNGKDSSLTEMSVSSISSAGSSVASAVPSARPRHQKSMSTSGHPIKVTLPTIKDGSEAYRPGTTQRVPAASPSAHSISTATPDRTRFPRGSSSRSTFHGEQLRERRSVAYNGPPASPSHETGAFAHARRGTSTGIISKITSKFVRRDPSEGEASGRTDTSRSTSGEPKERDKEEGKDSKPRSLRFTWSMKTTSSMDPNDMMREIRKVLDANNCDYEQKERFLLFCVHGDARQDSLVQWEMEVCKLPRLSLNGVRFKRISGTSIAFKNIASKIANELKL
T7 sequence (P37023 22-503): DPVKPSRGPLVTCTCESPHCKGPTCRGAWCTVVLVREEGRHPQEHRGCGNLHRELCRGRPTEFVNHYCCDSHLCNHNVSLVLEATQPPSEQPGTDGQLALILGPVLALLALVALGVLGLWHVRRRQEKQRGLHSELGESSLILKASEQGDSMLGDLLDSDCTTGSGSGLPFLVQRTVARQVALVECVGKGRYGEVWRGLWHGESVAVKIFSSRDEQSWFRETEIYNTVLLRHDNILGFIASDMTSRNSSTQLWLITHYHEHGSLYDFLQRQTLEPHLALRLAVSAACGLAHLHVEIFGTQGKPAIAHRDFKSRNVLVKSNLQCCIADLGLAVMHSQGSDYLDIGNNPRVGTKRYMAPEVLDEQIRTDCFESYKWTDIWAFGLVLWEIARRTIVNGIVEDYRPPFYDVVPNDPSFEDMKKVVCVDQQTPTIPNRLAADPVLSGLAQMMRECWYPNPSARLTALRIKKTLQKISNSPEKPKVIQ
T11 sequence (P07332 whole entry): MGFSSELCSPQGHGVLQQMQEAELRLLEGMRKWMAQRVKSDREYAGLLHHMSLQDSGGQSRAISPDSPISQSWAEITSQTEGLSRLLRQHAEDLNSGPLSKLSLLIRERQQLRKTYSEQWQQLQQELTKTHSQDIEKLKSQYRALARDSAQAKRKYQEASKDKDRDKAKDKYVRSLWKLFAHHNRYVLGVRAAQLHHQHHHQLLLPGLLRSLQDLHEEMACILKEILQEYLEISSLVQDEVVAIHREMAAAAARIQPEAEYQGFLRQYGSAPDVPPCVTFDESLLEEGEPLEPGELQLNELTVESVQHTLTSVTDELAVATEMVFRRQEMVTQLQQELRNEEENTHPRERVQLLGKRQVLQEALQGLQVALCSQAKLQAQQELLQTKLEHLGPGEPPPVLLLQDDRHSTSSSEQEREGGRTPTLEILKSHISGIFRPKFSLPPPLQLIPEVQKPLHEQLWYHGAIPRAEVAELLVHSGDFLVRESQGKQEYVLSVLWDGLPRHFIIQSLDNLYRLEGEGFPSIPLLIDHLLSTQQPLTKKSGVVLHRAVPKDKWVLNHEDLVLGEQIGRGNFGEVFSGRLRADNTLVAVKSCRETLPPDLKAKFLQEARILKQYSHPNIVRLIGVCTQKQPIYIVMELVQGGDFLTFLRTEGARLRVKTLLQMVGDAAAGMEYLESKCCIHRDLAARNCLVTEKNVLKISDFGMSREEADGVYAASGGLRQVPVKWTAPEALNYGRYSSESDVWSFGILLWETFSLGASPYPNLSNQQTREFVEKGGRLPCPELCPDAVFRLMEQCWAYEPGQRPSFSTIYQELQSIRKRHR

Compound	Residual activity (MYLK; 1.0E-05 M)	Residual activity (MYLK; 1.0E-06 M)	Residual activity (PAK1; 1.0E-05 M)	Residual activity (PAK1; 1.0E-06 M)	Residual activity (PRK1; 1.0E-05 M)	Residual activity (PRK1; 1.0E-06 M)	Residual activity (ARK5; 1.0E-05 M)	Residual activity (ARK5; 1.0E-06 M)	Residual activity (MARK1; 1.0E-05 M)	Residual activity (MARK1; 1.0E-06 M)	Residual activity (CLK2; 1.0E-05 M)	Residual activity (CLK2; 1.0E-06 M)	Residual activity (ACVRL1; 1.0E-05 M)	Residual activity (ACVRL1; 1.0E-06 M)	Residual activity (SGK2; 1.0E-05 M)	Residual activity (SGK2; 1.0E-06 M)	Residual activity (CDK1/CycB1; 1.0E-05 M)	Residual activity (CDK1/CycB1; 1.0E-06 M)	Residual activity (TTK; 1.0E-05 M)	Residual activity (TTK; 1.0E-06 M)	further results
O=C(Nc1ccc(F)c(Nc2ccc3c(c2)CCCCC3=O)c1)c1cccc(F)c1 [Compound 109]	64 % of control	81 % of control	80 % of control	84 % of control	101 % of control	94 % of control	88 % of control	92 % of control	99 % of control	87 % of control	103 % of control	112 % of control	109 % of control	94 % of control	96 % of control	97 % of control	114 % of control	106 % of control	89 % of control	91 % of control	Residual activity (FES; 1.0E-05 M): 90 % of control; Residual activity (FES; 1.0E-06 M): 79 % of control; Residual activity (WEE1; 1.0E-05 M): 95 % of control; Residual activity (WEE1; 1.0E-06 M): 100 % of control
O=C(Cc1ccccc1)Nc1ccc(F)c(Nc2ccc3c(c2)CCCCC3=O)c1 [Compound 100]	78 % of control	92 % of control	88 % of control	87 % of control	101 % of control	112 % of control	91 % of control	90 % of control	90 % of control	91 % of control	107 % of control	117 % of control	100 % of control	106 % of control	93 % of control	101 % of control	100 % of control	107 % of control	95 % of control	99 % of control	Residual activity (FES; 1.0E-05 M): 67 % of control; Residual activity (FES; 1.0E-06 M): 81 % of control; Residual activity (WEE1; 1.0E-05 M): 100 % of control; Residual activity (WEE1; 1.0E-06 M): 103 % of control
